Reference: US10689413B2, “Composition enriched in single isomer of NUC-1031 and preparation method and use thereof” (BrightGene Bio-Medical Technology Co., Ltd., priority 2015, dated 2020)
Entries after “also recorded” stand apart in the source; their conditions may differ.

How the values were obtained:
[1] = tested on: BxPC-3, MIA PaCa-2 and OVCAR-3 tumor cells; assay: Tumor cell proliferation in vitro, summary over the three cell lines; assay type: cell-based; conditions: for IC50: span over BxPC-3, MIA PaCa-2 and OVCAR-3, read-out: IC50 values (cytotoxic effect)
Method: (§1) The 50% inhibitory concentrations (IC50) for the cell proliferation of the compound Sp-1, the compound Rp-1 and NUC-1031 in BxPC-3, MIA PaCa-2 and OVCAR-3 tumor cell lines were measured using the CTG method.
(§2) Cells in an exponential growth phase were collected and the viable cells were counted using a Vi-Cell XR cell counter. The cell suspension was adjusted to 3.33×10^4/ml or 5.56×10^4/ml with culture media corresponding to the respective cells. 90 μl of cell suspension was added to each well of a 96-well cell culture plate, and the final cell concentrations of BxPC-3 and MIA PaCa-2 were 3000 cells/well and the final cell concentration of OVCAR-3 was 5000 cells/well. Each test compound was dissolved in DMSO to become 10 mM stock solutions. 3.16× serial dilutions were prepared by the stock solutions and DMSO. Then the dilutions were respectively diluted 100 times with the culture media. Finally, to each well of the respective cell lines was added 10 μl of the corresponding 10-fold solution, triplicate wells were set up for each drug concentration (see the methods for formulating the compounds and the design of sample adding: the plate map for IC50 determination); for the concentration ranges of the test compounds and the reference compounds used for the final tests, please see the methods for formulating the compounds and the design of sample adding on the following pages: the test compounds and the reference compounds were diluted, and the final concentration of DMSO in each well was 0.1%. The cells were placed in an incubator at 37° C. with 5% CO2 to be cultured for 72 hours (BxPC-3, MIA PaCa-2) or 96 hours (OVCAR-3). After 72 or 96 hours of drug treatment, 50 μl (½ culture volume) of CTG solution, which had been melted and equilibrated to room temperature in advance was added to each well according to the operating instruction of CTG; the mixtures were mixed evenly for 2 minutes with a microwell plate shaker, placed at room temperature for 10 minutes, and then an Envision 2104 plate reader was used to measure the values of the […] signals.
(§3) Cell viability was calculated with the formula: Vsample/Vvehicle control×100%, wherein Vsample is the reading of the treatment group and Vvehicle control is the average value of the vehicle control group. Non-linear regression model was used to plot the S-shape dose-survival rate curves and calculate the IC50 values using GraphPad Prism 5.0 software.

[2] = tested on: BxPC-3 tumor cells; assay: Tumor cell proliferation in vitro, CTG method, BxPC-3; assay type: cell-based; conditions: BxPC-3, 72 hours; for IC50: Homo sapiens
Method: as §1, §2, §3

[3] = tested on: MIA PaCa-2 tumor cells; assay: Tumor cell proliferation in vitro, CTG method, MIA PaCa-2; assay type: cell-based, human; conditions: MIA PaCa-2, 72 hours; for IC50: Homo sapiens
Method: as §1, §2, §3

[4] = tested on: OVCAR-3 tumor cells; assay: Tumor cell proliferation in vitro, CTG method, OVCAR-3; assay type: cell-based; conditions: OVCAR-3, 96 hours; for IC50: Homo sapiens
Method: as §1, §2, §3

[5] = tested on: MIA PaCa-2 human pancreatic cancer subcutaneous xenograft; assay: Pharmacodynamic evaluation in human pancreatic cancer subcutaneous xenograft mouse model; assay type: in vivo, BALB/c nude mice; conditions: for Relative tumor inhibition rate TGI: 0.19 mmoL/kg i.p. twice a week for 4 consecutive weeks (gemcitabine 50 mg/kg, others 110 mg/kg)
Method: Cell Culture: MIA PaCa-2 cells were cultured in a DMEM culture medium containing 10% fetal bovine serum and 2.5% HS. MIA PaCa-2 cells in an exponential growth phase were collected and resuspended in PBS to a suitable concentration for the subcutaneous tumor inoculation in nude mice.
Animal modeling and Grouping: BALB/c nude mice, female, 6 to 8 weeks old (the predicted weeks of age of the mice when being inoculated with tumor cells), 18 to 22 g, purchased from Shanghai Lingchang Biological Technology Co., LTD. A total of 52 mice (40 plus 30% surplus) were required. After grouping, there were 5 groups in total, each group having 8 mice. All experimental mice were raised in a barrier system and adapted to the environment for at least 7 days in advance. Each mice was subcutaneously inoculated with 3×10^6 MIA PaCa-2 cells on the right back and the cells were resuspended in PBS and matrigel (1:1) (0.1 ml/mice); the tumor growth was observed regularly, and when the tumor volumes reached an average size of 150 to 200 mm^3, the mice were randomly divided into groups according to the size of tumor and body weight of the mice, and the drugs were administered.
Relative tumor inhibition rate TGI(%): TGI %=(1−T/C)×100%. T/C % is the relative tumor growth rate, which is the percentage of the relative tumor volume or tumor weight of the treatment groups with respect to the control group at a certain timepoint. T and C are the relative tumor volume (RTV) or tumor weight (TW), respectively, of the treatment groups and the control group at a particular timepoint.
The calculation formula is as follows: T/C %=TRTV/CRTV×100% (TRTV: the average RTV of a treatment group; CRTV: the average RTV of the vehicle control group; RTV=Vt/V0, V0 is the tumor volume of an animal at the time of grouping, Vt is the tumor volume of an animal after treatment). Or T/C %=TTW/CTW×100% (TTW: the average tumor weight of a treatment group at the end of the experiment; CTW: the average tumor weight of the vehicle control group at the end of the experiment).

Row | Compound | IC50 [1] [nM] | Max inh. [2] [%] | IC50 [2] [nM] | IC50 [3] [nM] | Max inh. [3] [%] | IC50 [4] [nM] | Max inh. [4] [%] | Relative tumor inhibition rate TGI [5] [%] | inhibitory effect on the proliferation activity of tumor cells in vitro relative to compound Rp-1 ([1]; versus compound Rp-1) | in vivo antitumor activity, comparison in words ([5]; equimolar dose, i.p., BIW x 4)
1 | C[C@H](N[P@@](=O)(OC[C@H]1O[C@@H](n2ccc(N)nc2=O)C(F)(F)[C@@H]1O)Oc1ccccc1)C(=O)OCc1ccccc1 [Compound Rp-1] | 0.01 to 1 | 61.54 | 0.554 | 0.126 | 69.2 | 0.167 | 54.19 | 22 | – | –
2 | C[C@H](N[P@](=O)(OC[C@H]1O[C@@H](n2ccc(N)nc2=O)C(F)(F)[C@@H]1O)Oc1ccccc1)C(=O)OCc1ccccc1 [Compound Sp-1] | 0.01 to 1 | 66.48 | 0.045 | 0.012 | 71 | 0.013 | 58.22 | 79 | about 10 times | better in vivo anti-tumor activity than the compound Rp-1; also recorded: better in vivo antitumor activity as compared with gemcitabine and the compound Rp-1
3 | Nc1ccn([C@@H]2O[C@H](CO)[C@@H](O)C2(F)F)c(=O)n1 [Gemcitabine, reference compound] | – | – | – | – | – | – | – | 55 | – | –
4 | C[C@H](NP(=O)(OC[C@H]1O[C@@H](n2ccc(N)nc2=O)C(F)(F)[C@@H]1O)Oc1ccccc1)C(=O)OCc1ccccc1 (stereo partly drawn) [NUC-1031] | 0.01 to 1 | 65.82 | 0.263 | 0.063 | 65.03 | 0.095 | 56.3 | 54 | – | –
